In brackets after ≈: the same amount, converted by molar mass.
Each compound was assayed on Streptococcus pneumoniae (assay: Effect on 2 ug/ml moxifloxacin-selected penicillin-resistant Streptococcus pneumoniae 218 mutant after five passages assessed as susceptibility by agar dilution method). Details: not given.
Assay type: functional
`N[C@@H]1CN(c2c(F)cc3c(=O)c(C(=O)O)cn(C4C[C@@H]4F)c3c2Cl)CC12CC2` (single isomer, unassigned) [SITAFLOXACIN ANHYDROUS] was tested, and the MIC was 1 µg/mL.

What follows are compounds tested on Staphylococcus aureus (assay: Susceptibility of methicillin-sensitive/resistant Staphylococcus aureus single-step mutant by agar dilution method). Details: not given.
Assay type: functional
With `N[C@@H]1CN(c2c(F)cc3c(=O)c(C(=O)O)cn(C4C[C@@H]4F)c3c2Cl)CC12CC2` (single isomer, unassigned) [SITAFLOXACIN ANHYDROUS] the MIC was 0.25 µg/mL (≈ 0.61 µM).

Each compound was assayed on Streptococcus pneumoniae (assay: Susceptibility of penicillin-resistant Streptococcus pneumoniae 335 by agar dilution method). Details: not given.
Assay type: functional
For `N[C@@H]1CN(c2c(F)cc3c(=O)c(C(=O)O)cn(C4C[C@@H]4F)c3c2Cl)CC12CC2` (single isomer, unassigned) [SITAFLOXACIN ANHYDROUS], the MIC was 0.12 µg/mL (≈ 0.293 µM).

The compounds below were run on Streptococcus pneumoniae (assay: Effect on 0.06 ug/ml DQ113-selected penicillin-resistant Streptococcus pneumoniae 335 mutant after five passages assessed as susceptibility by agar dilution method). Details: not given.
Assay type: functional
For `N[C@@H]1CN(c2c(F)cc3c(=O)c(C(=O)O)cn(C4C[C@@H]4F)c3c2Cl)CC12CC2` (single isomer, unassigned) [SITAFLOXACIN ANHYDROUS], the MIC was 0.5 µg/mL (≈ 1.22 µM).

What follows are compounds tested on Streptococcus pneumoniae (assay: Effect on 0.5 ug/ml […]-selected penicillin-resistant Streptococcus pneumoniae 335 mutant after five passages assessed as susceptibility by agar dilution method). Details: not given.
Assay type: functional
For `N[C@@H]1CN(c2c(F)cc3c(=O)c(C(=O)O)cn(C4C[C@@H]4F)c3c2Cl)CC12CC2` (single isomer, unassigned) [SITAFLOXACIN ANHYDROUS], the MIC was 2 µg/mL.

These compounds were tested on Streptococcus pneumoniae (assay: Effect on 1 ug/ml moxifloxacin-selected penicillin-resistant Streptococcus pneumoniae 335 mutant after five passages assessed as susceptibility by agar dilution method). Details: not given.
Assay type: functional
Work on `N[C@@H]1CN(c2c(F)cc3c(=O)c(C(=O)O)cn(C4C[C@@H]4F)c3c2Cl)CC12CC2` (single isomer, unassigned) [SITAFLOXACIN ANHYDROUS] yielded an MIC of 0.5 µg/mL.

The compounds below were run on Streptococcus pneumoniae (assay: Effect on 0.06 ug/ml DQ113-selected penicillin-resistant Streptococcus pneumoniae 334 mutant after five passages assessed as susceptibility by agar dilution method). Details: not given.
Assay type: functional
`N[C@@H]1CN(c2c(F)cc3c(=O)c(C(=O)O)cn(C4C[C@@H]4F)c3c2Cl)CC12CC2` (single isomer, unassigned) [SITAFLOXACIN ANHYDROUS] was tested, and the MIC was 0.5 µg/mL (≈ 1.22 µM).

What follows are compounds tested on Streptococcus pneumoniae (assay: Effect on 8 ug/ml ciprofloxacin-selected penicillin-resistant Streptococcus pneumoniae 216 mutant after five passages assessed as susceptibility by agar dilution method). Details: not given.
Assay type: functional
For `N[C@@H]1CN(c2c(F)cc3c(=O)c(C(=O)O)cn(C4C[C@@H]4F)c3c2Cl)CC12CC2` (single isomer, unassigned) [SITAFLOXACIN ANHYDROUS], the MIC was 0.5 µg/mL.

The compounds below were run on Streptococcus pneumoniae (assay: Susceptibility of penicillin-resistant Streptococcus pneumoniae 218 by agar dilution method). Details: not given.
Assay type: functional
`N[C@@H]1CN(c2c(F)cc3c(=O)c(C(=O)O)cn(C4C[C@@H]4F)c3c2Cl)CC12CC2` (single isomer, unassigned) [SITAFLOXACIN ANHYDROUS] was tested, and the MIC was 0.12 µg/mL (≈ 0.293 µM).

These compounds were tested on Streptococcus pneumoniae (assay: Effect on 0.06 ug/ml DQ113-selected penicillin-resistant Streptococcus pneumoniae 218 mutant after five passages assessed as susceptibility by agar dilution method). Details: not given.
Assay type: functional
`N[C@@H]1CN(c2c(F)cc3c(=O)c(C(=O)O)cn(C4C[C@@H]4F)c3c2Cl)CC12CC2` (single isomer, unassigned) [SITAFLOXACIN ANHYDROUS] gave an MIC of 1 µg/mL (≈ 2.44 µM).

Each compound was assayed on Streptococcus pneumoniae (assay: Effect on 0.5 ug/ml sitafloxacin-selected penicillin-resistant Streptococcus pneumoniae 218 mutant after five passages assessed as susceptibility by agar dilution method). Details: not given.
Assay type: functional
With `N[C@@H]1CN(c2c(F)cc3c(=O)c(C(=O)O)cn(C4C[C@@H]4F)c3c2Cl)CC12CC2` (single isomer, unassigned) [SITAFLOXACIN ANHYDROUS] the MIC was 1 µg/mL.

These compounds were tested on Streptococcus pneumoniae (assay: Effect on 16 ug/ml levofloxacin-selected penicillin-resistant Streptococcus pneumoniae 218 mutant after five passages assessed as susceptibility by agar dilution method). Details: not given.
Assay type: functional
`N[C@@H]1CN(c2c(F)cc3c(=O)c(C(=O)O)cn(C4C[C@@H]4F)c3c2Cl)CC12CC2` (single isomer, unassigned) [SITAFLOXACIN ANHYDROUS] showed an MIC of 0.5 µg/mL.

These compounds were tested on Streptococcus pneumoniae (assay: Effect on 16 ug/ml ciprofloxacin-selected penicillin-resistant Streptococcus pneumoniae 218 mutant after five passages assessed as susceptibility by agar dilution method). Details: not given.
Assay type: functional
Compound `N[C@@H]1CN(c2c(F)cc3c(=O)c(C(=O)O)cn(C4C[C@@H]4F)c3c2Cl)CC12CC2` (single isomer, unassigned) [SITAFLOXACIN ANHYDROUS] has an MIC of 2 µg/mL.

What follows are compounds tested on Enterococcus (assay: Susceptibility of vancomycin-resistant Enterococcus species single-step mutant by agar dilution method). Details: not given.
Assay type: functional
`N[C@@H]1CN(c2c(F)cc3c(=O)c(C(=O)O)cn(C4C[C@@H]4F)c3c2Cl)CC12CC2` (single isomer, unassigned) [SITAFLOXACIN ANHYDROUS] was tested, and the MIC was 4 µg/mL (≈ 9.76 µM).

Each compound was assayed on Enterococcus (assay: Susceptibility of drug-selected vancomycin-resistant Enterococcus species mutant by agar dilution method). Details: read-out: MIC.
Assay type: functional
`N[C@@H]1CN(c2c(F)cc3c(=O)c(C(=O)O)cn(C4C[C@@H]4F)c3c2Cl)CC12CC2` (single isomer, unassigned) [SITAFLOXACIN ANHYDROUS] was tested, and the MIC was 8 µg/mL (≈ 19.5 µM).

Each compound was assayed on Streptococcus pneumoniae (assay: Effect on 16 ug/ml levofloxacin-selected penicillin-resistant Streptococcus pneumoniae 335 mutant after five passages assessed as susceptibility by agar dilution method). Details: not given.
Assay type: functional
`N[C@@H]1CN(c2c(F)cc3c(=O)c(C(=O)O)cn(C4C[C@@H]4F)c3c2Cl)CC12CC2` (single isomer, unassigned) [SITAFLOXACIN ANHYDROUS] gave an MIC of 4 µg/mL.

What follows are compounds tested on Streptococcus pneumoniae (assay: Effect on 16 ug/ml ciprofloxacin-selected penicillin-resistant Streptococcus pneumoniae 335 mutant after five passages assessed as susceptibility by agar dilution method). Details: not given.
Assay type: functional
Compound `N[C@@H]1CN(c2c(F)cc3c(=O)c(C(=O)O)cn(C4C[C@@H]4F)c3c2Cl)CC12CC2` (single isomer, unassigned) [SITAFLOXACIN ANHYDROUS] has an MIC of 0.5 µg/mL.

The compounds below were run on Streptococcus pneumoniae (assay: Susceptibility of penicillin-resistant Streptococcus pneumoniae 334 by agar dilution method). Details: not given.
Assay type: functional
In the case of `N[C@@H]1CN(c2c(F)cc3c(=O)c(C(=O)O)cn(C4C[C@@H]4F)c3c2Cl)CC12CC2` (single isomer, unassigned) [SITAFLOXACIN ANHYDROUS], the MIC is reported as 0.06 µg/mL (≈ 0.146 µM).

Each compound was assayed on Streptococcus pneumoniae (assay: Effect on 0.5 ug/ml sitafloxacin-selected penicillin-resistant Streptococcus pneumoniae 334 mutant after five passages assessed as susceptibility by agar dilution method). Details: not given.
Assay type: functional
In the case of `N[C@@H]1CN(c2c(F)cc3c(=O)c(C(=O)O)cn(C4C[C@@H]4F)c3c2Cl)CC12CC2` (single isomer, unassigned) [SITAFLOXACIN ANHYDROUS], the MIC is reported as 0.5 µg/mL.

What follows are compounds tested on Streptococcus pneumoniae (assay: Effect on 1 ug/ml moxifloxacin-selected penicillin-resistant Streptococcus pneumoniae 334 mutant after five passages assessed as susceptibility by agar dilution method). Details: not given.
Assay type: functional
`N[C@@H]1CN(c2c(F)cc3c(=O)c(C(=O)O)cn(C4C[C@@H]4F)c3c2Cl)CC12CC2` (single isomer, unassigned) [SITAFLOXACIN ANHYDROUS] showed an MIC of 0.12 µg/mL.

These compounds were tested on Streptococcus pneumoniae (assay: Effect on 4 ug/ml levofloxacin-selected penicillin-resistant Streptococcus pneumoniae 334 mutant after five passages assessed as susceptibility by agar dilution method). Details: not given.
Assay type: functional
With `N[C@@H]1CN(c2c(F)cc3c(=O)c(C(=O)O)cn(C4C[C@@H]4F)c3c2Cl)CC12CC2` (single isomer, unassigned) [SITAFLOXACIN ANHYDROUS] the MIC was 0.5 µg/mL.

These compounds were tested on Streptococcus pneumoniae (assay: Effect on 32 ug/ml ciprofloxacin-selected penicillin-resistant Streptococcus pneumoniae 334 mutant after five passages assessed as susceptibility by agar dilution method). Details: not given.
Assay type: functional
For `N[C@@H]1CN(c2c(F)cc3c(=O)c(C(=O)O)cn(C4C[C@@H]4F)c3c2Cl)CC12CC2` (single isomer, unassigned) [SITAFLOXACIN ANHYDROUS], the MIC was 0.5 µg/mL.

The compounds below were run on Streptococcus pneumoniae (assay: Susceptibility of penicillin-resistant Streptococcus pneumoniae 216 by agar dilution method). Details: not given.
Assay type: functional
`N[C@@H]1CN(c2c(F)cc3c(=O)c(C(=O)O)cn(C4C[C@@H]4F)c3c2Cl)CC12CC2` (single isomer, unassigned) [SITAFLOXACIN ANHYDROUS] was tested, and the MIC was 0.06 µg/mL (≈ 0.146 µM).

What follows are compounds tested on Streptococcus pneumoniae (assay: Effect on 0.06 ug/ml DQ113-selected penicillin-resistant Streptococcus pneumoniae 216 mutant after five passages assessed as susceptibility by agar dilution method). Details: not given.
Assay type: functional
With `N[C@@H]1CN(c2c(F)cc3c(=O)c(C(=O)O)cn(C4C[C@@H]4F)c3c2Cl)CC12CC2` (single isomer, unassigned) [SITAFLOXACIN ANHYDROUS] the MIC was 0.5 µg/mL (≈ 1.22 µM).

These compounds were tested on Streptococcus pneumoniae (assay: (§1) Effect on 0.5 ug/ml sitafloxacin-selected penicillin-resistant Streptococcus pneumoniae 216 mutant after five passages assessed as susceptibility by agar dilution method). Details: not given.
Assay type: functional
`N[C@@H]1CN(c2c(F)cc3c(=O)c(C(=O)O)cn(C4C[C@@H]4F)c3c2Cl)CC12CC2` (single isomer, unassigned) [SITAFLOXACIN ANHYDROUS] showed an MIC of 2 µg/mL.

What follows are compounds tested on Streptococcus pneumoniae (assay: Effect on 2 ug/ml moxifloxacin-selected penicillin-resistant Streptococcus pneumoniae 216 mutant after five passages assessed as susceptibility by agar dilution method). Details: not given.
Assay type: functional
Compound `N[C@@H]1CN(c2c(F)cc3c(=O)c(C(=O)O)cn(C4C[C@@H]4F)c3c2Cl)CC12CC2` (single isomer, unassigned) [SITAFLOXACIN ANHYDROUS] has an MIC of 4 µg/mL.

These compounds were tested on Streptococcus pneumoniae (assay: (§2) Effect on 4 ug/ml levofloxacin-selected penicillin-resistant Streptococcus pneumoniae 216 mutant after five passages assessed as susceptibility by agar dilution method). Details: not given.
Assay type: functional
Compound `N[C@@H]1CN(c2c(F)cc3c(=O)c(C(=O)O)cn(C4C[C@@H]4F)c3c2Cl)CC12CC2` (single isomer, unassigned) [SITAFLOXACIN ANHYDROUS] has an MIC of 0.5 µg/mL.

Each compound was assayed on Streptococcus pneumoniae (assay: Effect on 32 ug/ml ciprofloxacin-selected penicillin-resistant Streptococcus pneumoniae 216 mutant after five passages assessed as susceptibility by agar dilution method). Details: not given.
Assay type: functional
With `N[C@@H]1CN(c2c(F)cc3c(=O)c(C(=O)O)cn(C4C[C@@H]4F)c3c2Cl)CC12CC2` (single isomer, unassigned) [SITAFLOXACIN ANHYDROUS] the MIC was 1 µg/mL.

Each compound was assayed on Streptococcus pneumoniae (assay: Susceptibility of penicillin-resistant Streptococcus pneumoniae 217 by agar dilution method). Details: not given.
Assay type: functional
For `N[C@@H]1CN(c2c(F)cc3c(=O)c(C(=O)O)cn(C4C[C@@H]4F)c3c2Cl)CC12CC2` (single isomer, unassigned) [SITAFLOXACIN ANHYDROUS], the MIC was 0.12 µg/mL (≈ 0.293 µM).

The compounds below were run on Streptococcus pneumoniae (assay: Effect on 0.03 ug/ml DQ113-selected penicillin-resistant Streptococcus pneumoniae 216 mutant after five passages assessed as susceptibility by agar dilution method). Details: not given.
Assay type: functional
In the case of `N[C@@H]1CN(c2c(F)cc3c(=O)c(C(=O)O)cn(C4C[C@@H]4F)c3c2Cl)CC12CC2` (single isomer, unassigned) [SITAFLOXACIN ANHYDROUS], the MIC is reported as 0.25 µg/mL (≈ 0.61 µM).

What follows are compounds tested on Streptococcus pneumoniae (assay: as §1). Details: not given.
Assay type: functional
`N[C@@H]1CN(c2c(F)cc3c(=O)c(C(=O)O)cn(C4C[C@@H]4F)c3c2Cl)CC12CC2` (single isomer, unassigned) [SITAFLOXACIN ANHYDROUS] showed an MIC of 1 µg/mL.

What follows are compounds tested on Streptococcus pneumoniae (assay: Effect on 0.5 ug/ml moxifloxacin-selected penicillin-resistant Streptococcus pneumoniae 216 mutant after five passages assessed as susceptibility by agar dilution method). Details: not given.
Assay type: functional
`N[C@@H]1CN(c2c(F)cc3c(=O)c(C(=O)O)cn(C4C[C@@H]4F)c3c2Cl)CC12CC2` (single isomer, unassigned) [SITAFLOXACIN ANHYDROUS] showed an MIC of 0.5 µg/mL.

These compounds were tested on Streptococcus pneumoniae (assay: as §2). Details: not given.
Assay type: functional
For `N[C@@H]1CN(c2c(F)cc3c(=O)c(C(=O)O)cn(C4C[C@@H]4F)c3c2Cl)CC12CC2` (single isomer, unassigned) [SITAFLOXACIN ANHYDROUS], the MIC was 0.12 µg/mL.
